In ChEMBL document CHEMBL1155939, “Baicalin, a prodrug able to reach the CNS, is a prolyl oligopeptidase inhibitor” (Bioorg Med Chem, 2008):

Target: T1, Prolyl endopeptidase (Homo sapiens, UniProt P48147)
T1 sequence (P48147 whole entry): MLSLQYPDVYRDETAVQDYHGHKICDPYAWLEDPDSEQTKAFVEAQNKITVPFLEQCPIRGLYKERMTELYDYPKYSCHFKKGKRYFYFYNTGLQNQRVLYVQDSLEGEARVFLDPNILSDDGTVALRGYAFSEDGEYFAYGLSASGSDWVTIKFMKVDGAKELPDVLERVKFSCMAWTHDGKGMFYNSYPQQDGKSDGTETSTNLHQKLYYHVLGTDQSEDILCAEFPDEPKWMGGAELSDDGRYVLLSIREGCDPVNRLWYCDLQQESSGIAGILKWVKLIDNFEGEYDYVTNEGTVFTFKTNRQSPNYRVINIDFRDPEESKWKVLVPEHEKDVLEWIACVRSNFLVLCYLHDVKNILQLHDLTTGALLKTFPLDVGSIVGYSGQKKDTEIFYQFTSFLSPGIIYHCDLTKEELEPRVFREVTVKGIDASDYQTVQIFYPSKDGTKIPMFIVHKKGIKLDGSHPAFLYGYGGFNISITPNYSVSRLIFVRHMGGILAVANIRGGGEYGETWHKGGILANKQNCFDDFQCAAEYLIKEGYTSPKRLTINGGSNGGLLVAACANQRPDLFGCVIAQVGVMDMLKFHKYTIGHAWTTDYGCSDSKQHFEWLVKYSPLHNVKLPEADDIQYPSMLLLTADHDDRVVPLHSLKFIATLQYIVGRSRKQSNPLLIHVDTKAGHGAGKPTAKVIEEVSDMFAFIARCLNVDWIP
Assay: Inhibition of human brain prolyl oligopeptidase expressed in Escherichia coli

Compound | IC50
O=c1c(O)c(-c2ccccc2)oc2cc(O)ccc12 [3,7-DIHYDROXYFLAVONE] | > 200 µM
O=c1c(O)c(-c2ccc(O)cc2)oc2cc(O)cc(O)c12 [KAEMPFEROL] | > 200 µM
O=c1c(O)c(-c2ccc(O)c(O)c2)oc2cc(O)cc(O)c12 [QUERCETIN] | 13 µM
C[C@@H]1O[C@@H](OC[C@H]2O[C@@H](Oc3c(-c4ccc(O)c(O)c4)oc4cc(O)cc(O)c4c3=O)[C@H](O)[C@@H](O)[C@@H]2O)[C@H](O)[C@H](O)[C@H]1O [RUTIN] | > 200 µM
